The nature of data set [1]: Stimulation of [35S]GTPcS binding against recombinant human opioid receptor mu 1. In kind it is functional.
Data set [2] can be described thus: Stimulation of [35S]GTPcS binding against recombinant human opioid receptor delta 1. In kind it is functional.
Data set [3] can be described thus: Stimulation of [35S]GTPcS binding against recombinant human opioid receptor kappa 1. In kind it is functional.
Data set [4] is filed under the species Homo sapiens. The data set is described as follows: Percentage stimulation of [35S]GTPcS binding compared to relevant control; ND=Not detectable activity. It is filed as functional.
A short description of data set [5]: Inhibition of [3H]U-69593 binding to recombinant human Opioid receptor kappa 1.
The target in a further data set is Mu-type opioid receptor (Homo sapiens, UniProt P35372). The data set is described as follows: Inhibition of [3H]-DAMGO binding to recombinant human Opioid receptor mu 1.
Sequence of Mu-type opioid receptor (P35372 whole entry): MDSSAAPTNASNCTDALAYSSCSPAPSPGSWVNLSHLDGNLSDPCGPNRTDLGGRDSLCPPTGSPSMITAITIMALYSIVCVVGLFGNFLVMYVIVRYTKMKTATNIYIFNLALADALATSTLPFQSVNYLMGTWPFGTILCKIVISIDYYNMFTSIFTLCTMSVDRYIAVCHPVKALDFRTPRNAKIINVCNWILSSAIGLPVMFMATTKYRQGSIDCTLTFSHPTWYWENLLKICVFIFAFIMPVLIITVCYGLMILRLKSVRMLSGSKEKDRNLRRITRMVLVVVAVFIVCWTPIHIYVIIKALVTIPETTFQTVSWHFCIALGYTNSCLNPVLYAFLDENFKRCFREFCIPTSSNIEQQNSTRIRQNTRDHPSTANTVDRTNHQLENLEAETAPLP
Data set [6] in a line: Inhibition of [3H]DPDPE binding to recombinant human Opioid receptor delta 1.
A short description of data set [7]: Stimulation of [35S]GTPcS binding against recombinant human opioid receptor kappa 1;ND=no detectable activity. In kind it is functional.
The species entered for data set [8] is Homo sapiens. The data set is described as follows: Percentage stimulation of [35S]GTPcS binding compared to relevant control;ND=no detectable activity. In kind it is functional.
For data set [9], the target named is Opioid receptors; mu & delta (Homo sapiens) (UniProt P41143+P35372). The data set can be described thus: Receptor selectivity ratio for Opioid receptors delta 1 and mu 1. It is filed as protein assay.
Sequence of Opioid receptors; mu & delta (Homo sapiens) (P35372 whole entry, looked up): as the sequence (P35372 whole entry) above
Sequence of Opioid receptors; mu & delta (Homo sapiens) (P41143 whole entry, looked up): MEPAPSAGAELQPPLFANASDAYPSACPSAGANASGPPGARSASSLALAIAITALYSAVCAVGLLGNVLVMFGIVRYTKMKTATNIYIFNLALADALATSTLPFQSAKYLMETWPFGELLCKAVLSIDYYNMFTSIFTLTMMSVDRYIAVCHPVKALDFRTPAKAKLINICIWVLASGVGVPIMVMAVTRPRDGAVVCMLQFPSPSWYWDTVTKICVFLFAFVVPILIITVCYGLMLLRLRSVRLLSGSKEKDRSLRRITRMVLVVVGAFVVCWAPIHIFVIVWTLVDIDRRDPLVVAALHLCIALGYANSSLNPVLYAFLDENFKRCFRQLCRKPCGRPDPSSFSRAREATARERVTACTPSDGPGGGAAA
Data set [10] can be described thus: Half life in rat liver microsomes. It is filed as ADME, Microsome.
Data set [11] can be described thus: Half life in human liver microsomes. In kind it is ADME, Microsome. (Liver microsomes are a subcellular fraction often used to study metabolism.)
Data set [12] can be described thus: Half life in monkey liver microsomes. It is filed as ADME, Microsome. Conditions: cercopithecidae.
The species entered for data set [13] is Homo sapiens. The data set can be described thus: Percentage stimulation of [35S]-GTPcS binding compared to relevant control. In kind it is functional.

By EC50 is commonly meant the concentration that produces a half-maximal response. The Emax is the greatest response seen or fitted, relative to the assay's reference. As usually defined, the Ki is the equilibrium dissociation constant of an inhibitor or competing ligand from its target. Broadly, the half-life is the time in which the quantity being followed falls by half.

Several values for one entry are separate records, joined by “and”; a condition that tells them apart may be missing. Equal values may be shown once. Activity calls are given as the source filed them. The rule behind the calls is not given here.

Consider `CN1CC[C@]23c4c5ccc(O)c4O[C@H]2[C@@H](O[C@@H]2O[C@H](C(=O)O)[C@@H](O)[C@H](O)[C@H]2O)C=C[C@H]3[C@H]1C5` [MORPHINE GLUCURONIDE], for which the EC50 in data set [1] was 72.3 nM; in data set [2], 190 nM; in data set [3] it was greater than 10000 nM. For the same compound, the Emax entry in the data set filed under Homo sapiens [4] is “inactive”. Besides, the Ki was 4060 nM in [5], 12.9 nM at Mu-type opioid receptor and 170 nM in data set [6].
In the case of `COC1[C@H](SC2OC(C(=O)O)C(O)C(O)C2O)C=C[C@H]2[C@H]3Cc4ccc(O)cc4[C@@]12CCN3C` (some centres not stated), the results for the EC50 result in data set [7], in data set [1] and in data set [2] were “Not Active”, 90.6 nM and 50.1 nM, respectively. For the same compound, the Emax result in the data set filed under Homo sapiens [8] was “inactive”. Further, the Ki was 288 nM in [5], 8.7 nM at Mu-type opioid receptor and 31.4 nM in data set [6].
Turning to `COC1[C@H](NC(=O)CC2OC(CO)C(O)C(O)C2O)C=C[C@H]2[C@H]3Cc4ccc(O)cc4[C@@]12CCN3C` (some centres not stated) [DEPROTECTED COGENER OF M6G], the half-maximal effective concentration (EC50) came to 37.2 nM in data set [1] and 335 nM in data set [2]. Moreover, the Selectivity in [9] was 76.7 and 166. The values for the inhibitory constant (Ki) (at Mu-type opioid receptor; in data set [6]) were 3.5 nM and 266 nM, respectively.
Take `COC1[C@H](NC(=O)CC2OC(COCc3ccccc3)C(OCc3ccccc3)C(OCc3ccccc3)C2OCc2ccccc2)CC[C@H]2[C@H]3Cc4ccc(O)cc4[C@@]12CCN3C` (some centres not stated): the half-life amounted to 19.8 min in data set [10], 42.9 min in data set [11] and 90 min in data set [12].
Regarding `COC1[C@H](SC2OC(CO)C(O)C(O)C2O)C=C[C@H]2[C@H]3Cc4ccc(O)cc4[C@@]12CCN3C` (some centres not stated), the concentration for a half-maximal effect (EC50) came to 91.5 nM in [1], 192 nM in data set [2] and 321 nM in data set [3]. Moreover, in the data set filed under Homo sapiens [13], the Emax is 42.5% and 64.5% and 51.5%. Further, in data set [9], the Selectivity was 10.4 and 25.4. The inhibitory constant (Ki) in data set [5] was 136 nM; in data set [6], 56.2 nM.
Consider `COC1[C@H](NC(=O)CC2OC(COCc3ccccc3)C(OCc3ccccc3)C(OCc3ccccc3)C2OCc2ccccc2)C=C[C@H]2[C@H]3Cc4ccc(O)cc4[C@@]12CCN3C` (some centres not stated), for which the EC50 in [1] is 623 nM; in [2], 2.2 nM; in data set [3], 1.8 nM. The results for the inhibition constant Ki (in data set [5]; on Mu-type opioid receptor; in [6]) were 15.8 nM, 0.5 nM and 7.2 nM, respectively. The half-life in [10] was 24.6 min; in data set [12] it was 30.7 min.

The record behind these values is ChEMBL document CHEMBL1141907, “Synthesis and in vitro biological evaluation of a carbon glycoside analogue of morphine-6-glucuronide” (Bioorg Med Chem Lett, 2005).
